# Experimental data from US20240368121A1, “ESTROGEN RECEPTOR DEGRADERS, PHARMACEUTICAL COMPOSITIONS THEREOF, AND THEIR THERAPEUTIC APPLICATIONS” (BioTheryX, Inc., priority 2021, published 2024).
# Tests used:
# Assay type in all cases: cell-based
# MCF7 cells = experiment: Cell viability assay ([…]-GLO, 6-day treatment); settings: Homo sapiens, MCF7, 144 h; MCF-7 cells, 6 days, CTG; read-out: Inhibition of Cancerous Cells IC50 MCF-7
# How it was run: (§1)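 MCF7 (MEM) and T47D (RPMI with insulin), both with 10% FBS, at 1,000 cells/well, treated with a 10-point compound dose series for 6 days, with medium and compound refreshed once. Viability read by CellTiter-Glo luminescence.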
# T47D cells = experiment: Cell viability assay ([…]-GLO, 6-day treatment); settings: Homo sapiens, 144 h, 6 days, CTG, read-out: Inhibition of Cancerous Cells IC50 T47D
# How it was run: as §1
# ERα = biological target: T1, ERα (Homo sapiens, UniProt P03372); experiment: Protein degradation assay: ERα in MCF-7 cells via western blot; settings: 6 h; for ERα Protein Degradation 1 nM: 1 nM compound; for ERα Protein Degradation 10 nM: 10 nM compound; for ERα Protein Degradation 100 nM: 100 nM compound
# T1 construct: degrading an ERα in MCF-7 cells via a western blot; endogenous in cells; host or cells: MCF-7
# T1 sequence (P03372 1-595): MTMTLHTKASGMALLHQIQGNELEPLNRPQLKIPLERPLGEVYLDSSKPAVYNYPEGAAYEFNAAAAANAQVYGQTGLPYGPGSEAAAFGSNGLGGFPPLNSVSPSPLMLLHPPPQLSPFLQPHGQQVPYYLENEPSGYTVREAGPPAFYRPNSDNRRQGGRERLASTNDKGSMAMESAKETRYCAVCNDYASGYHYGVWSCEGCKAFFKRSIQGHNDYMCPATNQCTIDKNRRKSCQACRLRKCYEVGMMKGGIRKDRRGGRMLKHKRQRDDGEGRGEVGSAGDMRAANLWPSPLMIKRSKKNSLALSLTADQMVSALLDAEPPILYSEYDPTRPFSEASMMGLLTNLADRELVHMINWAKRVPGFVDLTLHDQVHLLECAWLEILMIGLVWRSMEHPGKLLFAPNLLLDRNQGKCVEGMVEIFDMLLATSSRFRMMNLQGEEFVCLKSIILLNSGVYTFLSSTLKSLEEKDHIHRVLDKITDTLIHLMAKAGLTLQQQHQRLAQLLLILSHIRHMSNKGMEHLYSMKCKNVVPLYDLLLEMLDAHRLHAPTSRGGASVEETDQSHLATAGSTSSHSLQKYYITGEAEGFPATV
# How it was run: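 MCF-7 cells in MEM/10% FBS with insulin, seeded 300,000/well, treated 6 h at set concentrations (e.g., 1 nM–1 μM). Whole-cell lysates immunoblotted for ERα with GAPDH loading control, chemiluminescent detection; percentage degradation reported in binned categories (≥50%, 25–50%, 10–25%, <10%).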
IC50 (MCF7 cells),IC50 (T47D cells),SMILES,ERα Protein Degradation 1 nM (ERα),ERα Protein Degradation 10 nM (ERα),ERα Protein Degradation 100 nM (ERα)
16 nM,4.6 nM,"O=C1CCC(Nc2cccc(N3CCN(CC4CCN(c5ccc([C@@H]6c7ccc(O)cc7CC[C@@H]6c6ccccc6)cc5)CC4)CC3)c2)C(=O)N1 (stereo partly drawn) [Compound B13, 3-((3-(4-((1-(4-((1R,2S)-6-hydroxy-2-phenyl-1,2,3,4-tetrahydronaphthalen-1-yl)phenyl)piperidin-4-yl)methyl)piperazin-1-yl)phenyl)amino)piperidine-2,6-dione]",D (a percentage degradation value of less than 10%),D (a percentage degradation value of less than 10%),D (a percentage degradation value of less than 10%)
1.7 nM,0.49 nM,"O=C1CCN(c2cccc(OCC(=O)N3CCN(CCCCOc4ccc([C@@H]5c6ccc(O)cc6CC[C@@H]5c5ccccc5)cc4)CC3)c2)C(=O)N1 [Compound B9, 1-(3-(2-(4-(4-(4-((1R,2S)-6-hydroxy-2-phenyl-1,2,3,4-tetrahydronaphthalen-1-yl)phenoxy)butyl)piperazin-1-yl)-2-oxoethoxy)phenyl)dihydropyrimidine-2,4(1H,3H)-dione]",D (a percentage degradation value of less than 10%),D (a percentage degradation value of less than 10%),D (a percentage degradation value of less than 10%)
101 nM,44 nM,"CC1(Cc2ccc(OCCCCN3CCN(C(=O)COc4cccc(C5CCC(=O)NC5=O)c4)CC3)cc2)C(c2ccc(O)cc2)=Nc2ccc(O)cc21 (stereo not drawn) [Compound D7, 3-(3-(2-(4-(4-(4-((5-Hydroxy-2-(4-hydroxyphenyl)-3-methyl-3H-indol-3-yl)-methyl)phenoxy)butyl)piperazin-1-yl)-2-oxoethoxy)phenyl)piperidine-2,6-dione]",D (a percentage degradation value of less than 10%),D (a percentage degradation value of less than 10%),D (a percentage degradation value of less than 10%)
5 nM,2.6 nM,"O=C1CCC(Nc2cccc(OCC(=O)N3CCN(CC4CCN(c5ccc([C@@H]6c7ccc(O)cc7CC[C@@H]6c6ccccc6)cc5)CC4)CC3)c2)C(=O)N1 (stereo partly drawn) [Compound B16, 3-((3-(2-(4-((1-(4-((1R,2S)-6-hydroxy-2-phenyl-1,2,3,4-tetrahydronaphthalen-1-yl)phenyl)piperidin-4-yl)methyl)piperazin-1-yl)-2-oxoethoxy)phenyl)amino)piperidine-2,6-dione]",C (a percentage degradation value of less than 25% and no less than 10%),C (a percentage degradation value of less than 25% and no less than 10%),C (a percentage degradation value of less than 25% and no less than 10%)
19 nM,0.84 nM,"Cc1c(-c2ccc(O)cc2)n(Cc2ccc(OCCCCN3CCN(C(=O)COc4cccc5c4CN(C4CCC(=O)NC4=O)C5=O)CC3)cc2)c2ccc(O)cc12 (stereo not drawn) [Compound E1, 3-(4-(2-(4-(4-(4-((5-hydroxy-2-(4-hydroxyphenyl)-3-methyl-1H-indol-1-yl)-methyl)phenoxy)butyl)piperazin-1-yl)-2-oxoethoxy)-1-oxoisoindolin-2-yl)piperidine-2,6-dione]",C (a percentage degradation value of less than 25% and no less than 10%),B (a percentage degradation value of less than 50% and no less than 25%),B (a percentage degradation value of less than 50% and no less than 25%)
4.5 nM,3.2 nM,"Cc1c(-c2ccc(O)cc2)n(Cc2ccc(OCCCCN3CCN(C(=O)COc4ccc5c(c4)CN(C4CCC(=O)NC4=O)C5=O)CC3)cc2)c2ccc(O)cc12 (stereo not drawn) [Compound E3, 3-(5-(2-(4-(4-(4-((5-Hydroxy-2-(4-hydroxyphenyl)-3-methyl-1H-indol-1-yl)-methyl)phenoxy)butyl)piperazin-1-yl)-2-oxoethoxy)-1-oxoisoindolin-2-yl)piperidine-2,6-dione]",B (a percentage degradation value of less than 50% and no less than 25%),B (a percentage degradation value of less than 50% and no less than 25%),B (a percentage degradation value of less than 50% and no less than 25%)

# The next lines start with the compound.
SMILES,IC50 (MCF7 cells),IC50 (T47D cells),ERα Protein Degradation 1 nM (ERα),ERα Protein Degradation 10 nM (ERα),ERα Protein Degradation 100 nM (ERα)
"O=C1CCC(N2Cc3cc(C4CCN(CCCCCCOc5ccc([C@@H]6c7ccc(O)cc7CC[C@@H]6c6ccccc6)cc5)CC4)c(F)cc3C2=O)C(=O)N1 (stereo partly drawn) [Compound A5, 3-(6-Fluoro-5-(1-(6-(4-((1R,2S)-6-hydroxy-2-phenyl-1,2,3,4-tetrahydro-naphthalen-1-yl)phenoxy)hexyl)piperidin-4-yl)-1-oxoisoindolin-2-yl)piperidine-2,6-dione]",0.37 nM,0.22 nM,A (a percentage degradation value of no less than 50%),A (a percentage degradation value of no less than 50%),A (a percentage degradation value of no less than 50%)
"O=C1CCC(N2Cc3c(csc3C3CCN(CCCCOc4ccc([C@@H]5c6ccc(O)cc6CC[C@@H]5c5ccccc5)cc4)CC3)C2=O)C(=O)N1 (stereo partly drawn) [Compound A19, 3-(1-(1-(4-(4-((1R,2S)-6-Hydroxy-2-phenyl-1,2,3,4-tetrahydronaphthalen-1-yl)-phenoxy)butyl)piperidin-4-yl)-4-oxo-4H-thieno[3,4-c]pyrrol-5(6H)-yl)piperidine-2,6-dione]",2.2 nM,0.07 nM,D (a percentage degradation value of less than 10%),D (a percentage degradation value of less than 10%),D (a percentage degradation value of less than 10%)
"O=C1CCC(N2Cc3cc(N4CCN(CC5CCN(c6ccc(C7c8ccc(O)cc8CC[C@@H]7c7ccccc7)cc6)CC5)CC4)ccc3C2=O)C(=O)N1 (stereo in doubt) [Compound A16, (S)-3-(5-(4-((1-(4-((1R,2S)-6-Hydroxy-2-phenyl-1,2,3,4-tetrahydronaphthalen-1-yl)phenyl)piperidin-4-yl)methyl)piperazin-1-yl)-1-oxoisoindolin-2-yl)piperidine-2,6-dione]",0.68 nM,0.22 nM,B (a percentage degradation value of less than 50% and no less than 25%),A (a percentage degradation value of no less than 50%),A (a percentage degradation value of no less than 50%)
"O=C1CCC(N2Cc3cc(C4CCN(CCCCOc5ccc([C@@H]6c7ccc(O)cc7CC[C@@H]6c6ccccc6)cc5)CC4)c(F)cc3C2=O)C(=O)N1 (stereo partly drawn) [Compound A4, 3-(6-Fluoro-5-(1-(4-(4-((1R,2S)-6-hydroxy-2-phenyl-1,2,3,4-tetrahydro-naphthalen-1-yl)phenoxy)butyl)piperidin-4-yl)-1-oxoisoindolin-2-yl)piperidine-2,6-dione]",0.06 nM,0.08 nM,D (a percentage degradation value of less than 10%),D (a percentage degradation value of less than 10%),D (a percentage degradation value of less than 10%)
"O=C1CCC(N2Cc3c(cc(F)cc3C3CCN(CCCCOc4ccc([C@@H]5c6ccc(O)cc6CC[C@@H]5c5ccccc5)cc4)CC3)C2=O)C(=O)N1 (stereo partly drawn) [Compound A1, 3-(6-fluoro-4-(1-(4-(4-((1R,2S)-6-hydroxy-2-phenyl-1,2,3,4-tetrahydro-naphthalen-1-yl)phenoxy)butyl)piperidin-4-yl)-1-oxoisoindolin-2-yl)piperidine-2,6-dione]",< 0.01 nM,0.24 nM,C (a percentage degradation value of less than 25% and no less than 10%),C (a percentage degradation value of less than 25% and no less than 10%),B (a percentage degradation value of less than 50% and no less than 25%)
"O=C1CCC(c2ccc(OCC(=O)N3CCN(CCCCOc4ccc([C@@H]5c6ccc(O)cc6CC[C@@H]5c5ccccc5)cc4)CC3)cc2)C(=O)N1 (stereo partly drawn) [Compound B6, 3-(4-(2-(4-(4-(4-((1R,2S)-6-hydroxy-2-phenyl-1,2,3,4-tetrahydronaphthalen-1-yl)phenoxy)butyl)piperazin-1-yl)-2-oxoethoxy)phenyl)piperidine-2,6-dione]",0.22 nM,0.18 nM,C (a percentage degradation value of less than 25% and no less than 10%),C (a percentage degradation value of less than 25% and no less than 10%),C (a percentage degradation value of less than 25% and no less than 10%)
